Results on four compounds are retold here after patent US6147076A, “Analogues of N-acetylardeemin, method of preparation and uses thereof” (priority 1996, dated 2000).

What is called Ki is the equilibrium dissociation constant of an inhibitor or competing ligand from its target.

Several values for one entry are separate records, joined by “and”; a condition that tells them apart may be missing. Equal values may be shown once. Read-outs that look alike come from different tables or passages of the source.

One data set concerns P388/DX leukemic cells. In words: Drug combination of adriamycin and 5-N-acetyl-ardeemin against P388/DX cell growth (XTT). The settings on record: drug alone. The format is cell-based. The text has this: | microplate, 25,000 cell/well, N = 2.
(Tetrazolium dyes change colour on reduction, which living cells bring about.)

For a further data set, the system named is DC-3F/ADII cells. Nature of the data set: cells. Particulars: Mesocricetus auratus, DC3F.
The next data set has as its system DC-3F hamster lung cells. In words: Cytotoxicity toward DC-3F hamster lung cells. The settings on record: Mesocricetus auratus, DC3F, read-out: IC50 for inhibiting cell growth, Table 7, DC-3F.
Another data set relates to P388/0. In words: Survival time evaluation for BDF mice bearing P388/0. The settings on record: for survival time: individual mice.
Another data set deals with P388/DX. Nature of the data set: Survival time evaluation for BDF mice bearing P388/DX. The settings on record: for survival time: individual mice.
The test system of another data set is P388 leukemic cells. In words: Drug combination of adriamycin and 5-N-acetyl-ardeemin against P388 cell growth (XTT). The settings on record: Mus musculus, P388, drug alone.
For a further data set, the system named is P388/O tumor. In words: Combination therapy of adriamycin & 5-N-acetyl-ardeemin or verapamil in B6D2F1 mice bearing P388/O tumor.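 As to all read-outs here: male BDF mice carrying P388/O given intraperitoneally, dosing begun on day 1 on a QDX4, QWX2 schedule, five animals per dose level.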 The settings on record: for Days survived: individual mice 1-5, listed as Adr.
For another data set, the system named is P388/DX tumor. In words: Combination therapy of adriamycin & 5-N-acetyl-ardeemin or verapamil in B6D2F1 mice bearing P388/DX tumor.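 As to all read-outs here: male BDF mice implanted intraperitoneally with P388/DX cells, 10^6 per mouse, dosed from day 1 on a QDX4, QWX2 schedule, five mice per dose group.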 The settings on record: for Days survived: individual mice 1-5, listed as Adr.
For another data set, the system named is P388/0 tumor. In words: Combination therapy of adriamycin, vinblastine and des-Me-N-acetyl-ardeemin in B6D2F1 mice bearing P388/0 tumor. The settings on record: for Days survived: individual mice 1-5.
The target of data set [1] is acyl CoA:cholesterol acyltransferase (ACAT). The settings on record: read-out: Ki (with respect to oleoyl-CoA); cited from earlier work.
For a further data set, the system named is cultured macrophages. The settings on record: read-out: IC50, inhibition of cholesterol ester formation; cited from earlier work.
Data set [2] deals with CCRF-CEM cells. In words: Two drug combination study of vinblastine and 5-N-acetylardeemin on CCRF-CEM, 72 hr, XTT assay. The format is cell-based. Particulars: Homo sapiens, Table 2, drug alone, read-out: Dm (median-effect concentration). The text has this:
CCRF-CEM Cell Line at 72-HR Exposure Time. Based on XTT

The subject of data set [3] is vinblastine-resistant CCRF-CEM cells (CCRF-CEM/VBL100). Nature of the data set: Two drug combination study of vinblastine and 5-N-acetylardeemin on vinblastine-resistant CCRF-CEM, 72 hr, XTT assay. The format is cell-based, human. The source says:
Vinblastine-resistant CCRF-CEM Cell Line at 72-HR Exposure Time.
Based on XTT Assay. (large-scale study)

For data set [4], the system named is CCRF-CEM cells. Nature of the data set: IC50 of vinblastine in CCRF-CEM with/without MDR reversing agent. The format is cell-based. The settings on record: Homo sapiens, agent concentration added given in Table 6B, read-out: IC50 of VBL in the presence of reversing agent (A).
In the next data set the test system is CCRF-CEM/VBL cells. Nature of the data set: IC50 of vinblastine in CCRF-CEM/VBL with/without MDR reversing agent. The format is cell-based, human.
A further data set deals with CCRF-CEM/VBL100 cells. Particulars: human, ccrf-cem/vbl100 vs ccrf-cem.
Data set [5] deals with CCRF-CEM/VM-1 cells. The settings on record: IC50 of VBL, CCRF-CEM/VM-1 to CCRF-CEM.
The subject of data set [6] is vinblastine-resistant CCRF-CEM cells (CCRF-CEM/VBL100). Nature of the data set: Two drug combination study of vinblastine and 5-N-acetylardeemin on vinblastine-resistant CCRF-CEM, 72 hr, XTT assay. The settings on record: for Dose reduction index / dose of drug at FA (drug alone): Table 3. Details: dose of drug at FA (drug alone): unit not given here. The format is cell-based, human.

The test system of data set [7] is CCRF-CEM/VM-1 cells. In words: cells. The settings on record: Homo sapiens, read-out: IC50 of VBL in the presence of reversing agent (C).
Data set [8] has as its system CCRF-CEM cells. In words: Cytotoxicity / growth inhibition of CCRF-CEM leukemic cells. The settings on record: Homo sapiens, wild type CCRF-CEM.
Another data set relates to HCT116(VM)46 cells. Nature of the data set: Cytotoxicity (XTT, 72 hr) in multidrug resistant HCT116(VM)46 cells. The format is cell-based. The settings on record: IC50 HCT116(VM)46 / HCT116; 4320 min. Here is the method: All drug exposures were for 72 hr and cytotoxicity was measured by XTT tetrazolium dye assay.

Text for P388 leukemic cells: microplate, 15,000 cell/well, N = 2. Platting cells on day 1, add drugs o
day 2 and XTT assay on day 5.
Experimental for P388/0 tumor: ^a Male BDF mice were inoculated with P388/O, 10^6 cell/mouse,
i.p. on day 0; and started treatment on day 1, i.p., Q5Dx5, besides mice
with dose VBL 3.0 and VBL 3.0 mg/kg + DMNAA 50 mg/kg, only one injection
i.p., on day 1. There were five mice at every dose and ten in the control
Text for P388/DX tumor: ^a Male BDF mice were inoculated P388/DX, 10^6 cells/mouse, i.p.
starting day 1, QDX4, QWX2. There were five mice at every dose and ten
Text for P388/O tumor: ^a Male BDF mice were inoculated P388/O, 10^6 cells/mouse, i.p. a
starting day 1, QDX4, QWX2.

With `COc1cccc2c1C(=O)c1c(O)c3c(c(O)c1C2=O)C[C@@](O)(C(=O)CO)C[C@@H]3O[C@H]1C[C@H](N)[C@H](O)[C@H](C)O1` [Adriamycin, adriamycin], the IC50 was found to be 2140 nM with P388/DX leukemic cells; 380 nM in the data set on DC-3F/ADII cells (read-out: IC50 for inhibiting cell growth, Table 7, DC-3F/SDII); 30 nM in the data set on DC-3F hamster lung cells; 228 nM in the data set with P388 leukemic cells. Besides, the “% ILS” value in the data set with P388/0 (adriamycin 0.333 mg/kg) came out at 85%; in the data set on P388/0 (adriamycin 1.0 mg/kg) it was 129%; with P388/0 (adriamycin 3.0 mg/kg), 145%; in the data set with P388/DX (adriamycin 0.333 mg/kg), 24%; in the data set with P388/DX (adriamycin 1.0 mg/kg), 37%; in the data set with P388/DX (adriamycin 3.0 mg/kg), 48%. Also, the “% ILS” value in the data set with P388/O tumor (Adr 0.5 mg/kg) is recorded as “+128%”; in the data set with P388/O tumor (Adr 1.0 mg/kg), “+152%”; in the data set with P388/O tumor (Adr 2.0 mg/kg), “+178%”; in the data set on P388/O tumor (Adr 3.0 mg/kg) it was “+181%”; in the data set with P388/DX tumor (Adr. 0.5 mg/kg), “+49%”; in the data set with P388/DX tumor (Adr. 1.0 mg/kg), “+75%”. Also, the “% ILS” value in the data set with P388/DX tumor (Adr. 3.0 mg/kg) was “+130%”; in the data set with P388/0 tumor (Adr. 3.0 mg/kg), “+63%”; in the data set with P388/0 tumor (Adr. 5.0 mg/kg), “+81%”. Further, the MST in the data set with P388/0 (adriamycin 0.333 mg/kg) is recorded as 13.75; with P388/0 (adriamycin 1.0 mg/kg), 17.0; in the data set on P388/0 (adriamycin 3.0 mg/kg), 18.19; in the data set with P388/DX (adriamycin 0.333 mg/kg), 9.0; with P388/DX (adriamycin 1.0 mg/kg), 9.75; in the data set on P388/DX (adriamycin 3.0 mg/kg) it was 10.75. For the same compound, the MST in the data set with P388/O tumor (Adr 0.5 mg/kg) was found to be 17.3 days; in the data set with P388/O tumor (Adr 1.0 mg/kg) it was 19.1 days; in the data set on P388/O tumor (Adr 2.0 mg/kg), 21.1 days; in the data set with P388/O tumor (Adr 3.0 mg/kg) it was 19.8 days; in the data set on P388/DX tumor (Adr. 0.5 mg/kg), 11.3 days; with P388/DX tumor (Adr. 1.0 mg/kg), 13.25 days. The MST in the data set on P388/DX tumor (Adr. 2.0 mg/kg) is 15.55 days; in the data set with P388/DX tumor (Adr. 3.0 mg/kg) it was 17.4 days; in the data set with P388/0 tumor (Adr. 3.0 mg/kg) it was 13.60 days; with P388/0 tumor (Adr. 5.0 mg/kg), 15.10 days. In addition, the survival time is 12.25 and 13.0 and 14.25 and 15.5 with P388/0 (adriamycin 0.333 mg/kg); 14.25 and 15.5 and 18.0 and 20.25 with P388/0 (adriamycin 1.0 mg/kg); 16.0 and 17.25 and 19.25 and 20.25 in the data set with P388/0 (adriamycin 3.0 mg/kg); 8.0 and 8.5 and 9.5 and 10.0 with P388/DX (adriamycin 0.333 mg/kg); 9.0 and 10.0 and 10.25 and 10.5 in the data set with P388/DX (adriamycin 1.0 mg/kg); 10.0 and 11.5 and 12.25 in the data set with P388/DX (adriamycin 3.0 mg/kg). The Days survived in the data set on P388/O tumor (Adr 0.5 mg/kg) was 15.5 days and 16.0 days and 17.0 days and 18.0 days and 20.0 days; with P388/O tumor (Adr 1.0 mg/kg), 16.0 days and 19.0 days and 20.5 days and 21.0 days; in the data set with P388/O tumor (Adr 2.0 mg/kg), 19.0 days and 20.5 days and 21.0 days and 22.5 days; in the data set with P388/O tumor (Adr 3.0 mg/kg) it was 12.5 days and 16.0 days and 20.5 days and 24.6 days and 26.5 days; in the data set with P388/DX tumor (Adr. 0.5 mg/kg) it was 7.5 days and 10.5 days and 12.25 days and 14.0 days; with P388/DX tumor (Adr. 1.0 mg/kg) it was 11.5 days and 12.25 days and 13.25 days and 16.0 days. Moreover, the Days survived in the data set on P388/DX tumor (Adr. 2.0 mg/kg) is 14.0 days and 15.0 days and 15.25 days and 16.5 days and 17.0 days; in the data set on P388/DX tumor (Adr. 3.0 mg/kg), 14.0 days and 17.5 days and 21.0 days; with P388/0 tumor (Adr. 3.0 mg/kg, listed as Adr.), 10.5 days and 13.5 days and 14.5 days and 15.0 days; in the data set with P388/0 tumor (Adr. 5.0 mg/kg, listed as Adr.), 10.5 days and 14.0 days and 16.0 days and 17.0 days and 18.0 days. Besides, the deaths of toxicity entry in the data set on P388/O tumor (Adr 3.0 mg/kg, day 12.5 and 15) is given as “Two mice died of toxicity of drugs”; in the data set on P388/DX tumor (Adr. 3.0 mg/kg, day 14), “Two mice died of toxicity of drugs”.
Regarding `C=CC(C)(C)C12Nc3ccccc3C1(O)CC1C(=O)N3C(CC4(O)c5ccccc5NC34C(C)(C)C=C)C(=O)N12` (stereo not shown) [Gypsetin], the IC50 in the data set on DC-3F/ADII cells (read-out: IC50 for inhibiting cell growth) is 2250 nM; in the data set on cultured macrophages it was 650 nM; in the data set on DC-3F hamster lung cells, 3780 nM. Besides, the inhibition constant Ki in data set [1] was 5500 nM.
Turning to `CC[C@]1(O)C[C@@H]2CN(CCc3c([nH]c4ccccc34)[C@@](C(=O)OC)(c3cc4c(cc3OC)N(C)[C@H]3[C@@](O)(C(=O)OC)[C@H](OC(C)=O)[C@]5(CC)C=CCN6CC[C@]43[C@@H]65)C2)C1` [Vinblastine], the IC50 with CCRF-CEM cells [2] is 1.68 nM; in data set [3] (Homo sapiens, CCRF-CEM, Table 4 (large-scale study), drug alone, read-out: Dm (median-effect concentration)) it was 393 nM; in the data set on CCRF-CEM cells [4], 0.83 nM; with CCRF-CEM/VBL cells (Homo sapiens, CCRF-CEM, agent concentration added given in Table 6B, read-out: IC50 of VBL in the presence of reversing agent (B)), 832 nM; in data set [6] (Homo sapiens, CCRF-CEM, Table 3, drug alone, read-out: Dm (median-effect concentration)) it was 371 nM; in the data set with CCRF-CEM/VM-1 cells [7], 0.45 nM. In the data set with CCRF-CEM cells [8], the IC50 came out at 1.7 nM. In addition, the “dose reduction in combination” value in [3] (1:2000 ratio, at 98.4% inhibition) is on record as 41 fold. In addition, the “(b)/(a)” value in the data set with CCRF-CEM/VBL cells (IC50 of VBL, CCRF-CEM/VBL to CCRF-CEM) worked out at 761. In the data set on CCRF-CEM/VBL100 cells, the “resistance of CCRF-CEM/VBL100 compared with CCRF-CEM” value was found to be 220 fold. In addition, in the data set on CCRF-CEM/VM-1 cells [5], the “(C)/(A)” value was determined as 0.54. Moreover, the Dose reduction index in data set [6] (FA .9843) is listed as 41.85; in [6] (FA .9861), 22.03; in [6] (FA .9898) it was 10.05. Further, the “dose of drug at FA (drug alone)” value in data set [6] (FA .9843) stood at 2.092; in data set [6] (FA .9861) it was 2.203; in data set [6] (FA .9898), 2.512. For the same compound, the “% ILS” value in the data set on P388/0 tumor (VBL 3.0 mg/kg, one injection) is on record as “+64%”. The Days survived in the data set on P388/0 tumor (VBL 3.0 mg/kg, one injection, listed as VBL) was 5.0 days and 6.0 days and 9.5 days and 15.5 days and 16.0 days. Also, the MST with P388/0 tumor (VBL 3.0 mg/kg, one injection, toxic deaths excluded) was 13.67 days. Moreover, the deaths of toxicity entry in the data set with P388/0 tumor (VBL 3.0 mg/kg, day 5 and 6) is listed as “Two mice died of toxicity of drug”.
With `CC(=O)O[C@H]1C(=O)[C@@]2(C)[C@H]([C@H](OC(=O)c3ccccc3)[C@]3(O)C[C@H](OC(=O)[C@H](O)[C@@H](NC(=O)c4ccccc4)c4ccccc4)C(C)=C1C3(C)C)[C@]1(OC(C)=O)CO[C@@H]1C[C@@H]2O` [paclitaxel], the R/S ratio with HCT116(VM)46 cells was 132.
